Assay results from ChEMBL document CHEMBL1201862, “PubChem BioAssay data set” (2004).
Where “and” joins values, the source holds several entries; their conditions need not be identical. Identical values can stand only once.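 Grown in 96-well plates, cells were treated for 48 hours with each compound at five concentrations. Insufficient inhibition: endpoint recorded as highest concentration tested. GI50: concentration for 50% inhibition of growth.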 Calls of active or inactive are those of the source. Cut-off read from the data, not from the text of the source: active = GI50 up to about 1.1 µM and inactive = higher.

Assays:
Assay in all cases: DTP human tumour cell line panel, 48 h
SF-539 = test system: SF-539
Malme-3M = test system: Malme-3M
CCRF-CEM = test system: CCRF-CEM
IGROV-1 = test system: IGROV-1
UO-31 = test system: UO-31
BT-549 = test system: BT-549
NCI-H226 = test system: NCI-H226
SNB-19 = test system: SNB-19
COLO 205 = test system: COLO 205
NCI-H522 = test system: NCI-H522
SR = test system: SR
OVCAR-5 = test system: OVCAR-5
SK-MEL-2 = test system: SK-MEL-2
OVCAR-3 = test system: OVCAR-3
HL-60 = test system: HL-60
MDA-N = test system: MDA-N
HOP-62 = test system: HOP-62
PC-3 = test system: PC-3
SW-620 = test system: SW-620
Hs-578T = test system: Hs-578T
SN12C = test system: SN12C
U-251 = test system: U-251
UACC-257 = test system: UACC-257
RPMI-8226 = test system: RPMI-8226
OVCAR-4 = test system: OVCAR-4
RXF 393 = test system: RXF 393
786-0 = test system: 786-0
MDA-MB-231 = test system: MDA-MB-231
HT-29 = test system: HT-29
HCC 2998 = test system: HCC 2998
SK-OV-3 = test system: SK-OV-3
ACHN = test system: ACHN
DU-145 = test system: DU-145
SF-268 = test system: SF-268
SF-295 = test system: SF-295
A498 = test system: A498
TK-10 = test system: TK-10
MCF7 = test system: MCF7
UACC-62 = test system: UACC-62
EKVX = test system: EKVX
SK-MEL-28 = test system: SK-MEL-28
A549 = test system: A549
T47D = test system: T47D
NCI/ADR-RES = test system: NCI/ADR-RES
NCI-H460 = test system: NCI-H460
MDA-MB-435 = test system: MDA-MB-435
NCI-H23 = test system: NCI-H23
HCT-116 = test system: HCT-116
SK-MEL-5 = test system: SK-MEL-5
LOX IMVI = test system: LOX IMVI
HCT-15 = test system: HCT-15
HOP-92 = test system: HOP-92
OVCAR-8 = test system: OVCAR-8
CAKI-1 = test system: CAKI-1
SNB-75 = test system: SNB-75
K562 = test system: K562
MOLT-4 = test system: MOLT-4
KM12 = test system: KM12
M14 = test system: M14

Measured: GI50

NC1CCC[C@@H](O)[C@H]1O (some centres undefined)
inactive: SF-539 > 100 µM | Malme-3M > 100 µM | CCRF-CEM > 100 µM | IGROV-1 > 100 µM | UO-31 76.7 µM | BT-549 > 100 µM | NCI-H226 > 100 µM | SNB-19 > 100 µM | COLO 205 > 100 µM | NCI-H522 > 100 µM

OCC1NC(CO)C(O)C1O (centres undefined)
inactive: SR > 100 µM | OVCAR-5 > 100 µM | SK-MEL-2 > 100 µM | OVCAR-3 > 100 µM | HL-60 > 100 µM | MDA-N > 100 µM | HOP-62 > 100 µM | PC-3 > 100 µM | SW-620 > 100 µM | Hs-578T > 100 µM | CCRF-CEM > 100 µM | SN12C > 10 µM | BT-549 > 100 µM | U-251 > 100 µM | UACC-257 > 100 µM | SNB-19 > 100 µM | RPMI-8226 > 100 µM | OVCAR-4 > 100 µM | RXF 393 > 100 µM

CC(C)=CCCC1(C)C2COC(=O)C21 (centres undefined)
inactive: 786-0 > 100 µM and 63.2 µM | MDA-MB-231 > 100 µM | HT-29 > 100 µM | OVCAR-5 > 100 µM | HCC 2998 > 100 µM | SK-MEL-2 > 100 µM | SK-OV-3 > 100 µM | ACHN > 100 µM and 68.9 µM | PC-3 > 100 µM | Malme-3M > 100 µM | SW-620 64.7 µM | DU-145 > 100 µM | IGROV-1 53.7 µM | UO-31 > 100 µM | BT-549 > 100 µM | SF-268 > 100 µM | SF-295 > 100 µM and 63.2 µM | A498 > 100 µM | TK-10 > 100 µM | UACC-257 > 100 µM | SNB-19 > 100 µM | OVCAR-4 > 100 µM and 80 µM | MCF7 31.3 µM and 33.9 µM | UACC-62 > 100 µM | EKVX 67.5 µM | RXF 393 > 100 µM | SK-MEL-28 > 100 µM

[N-]=[N+]=CC(=O)COC(=O)c1ccccc1
inactive: A549 74.1 µM | 786-0 > 100 µM | MDA-MB-231 > 100 µM | T47D > 100 µM | SR 74.6 µM | NCI/ADR-RES > 100 µM | HT-29 > 100 µM | NCI-H460 > 100 µM | MDA-MB-435 > 100 µM | OVCAR-5 > 100 µM | HCC 2998 > 100 µM | NCI-H23 > 100 µM | SK-MEL-2 > 100 µM | OVCAR-3 > 100 µM | HL-60 > 100 µM | HCT-116 > 100 µM | SK-MEL-5 > 100 µM | SK-OV-3 > 100 µM | MDA-N > 100 µM | ACHN > 100 µM | HOP-62 > 100 µM | SF-539 > 100 µM | PC-3 > 100 µM | Malme-3M > 100 µM | SW-620 > 100 µM | DU-145 > 100 µM | CCRF-CEM > 100 µM | IGROV-1 > 100 µM | LOX IMVI > 100 µM | UO-31 > 100 µM | SN12C > 100 µM | BT-549 > 100 µM | SF-268 > 100 µM | SF-295 > 100 µM | U-251 > 100 µM | NCI-H226 > 100 µM | HOP-92 78 µM | OVCAR-8 > 100 µM | A498 > 100 µM | CAKI-1 > 100 µM | TK-10 > 100 µM | UACC-257 > 100 µM | SNB-75 > 100 µM | K562 > 100 µM | MOLT-4 > 100 µM | KM12 > 100 µM | SNB-19 > 100 µM | RPMI-8226 74.1 µM | COLO 205 > 100 µM | OVCAR-4 > 100 µM | M14 > 100 µM | MCF7 88.5 µM | UACC-62 > 100 µM | EKVX > 100 µM | RXF 393 > 100 µM | NCI-H522 > 100 µM | SK-MEL-28 > 100 µM
> 100 µM: HCT-15
